Tests used:
[1] = system: RCE cells; assay: ATP levels after excimer laser or 254 nm radiation (firefly luciferase kit); type: cell-based, rabbit; details: Q10 10 μM in Lutrol F127; 2 h preincubation; 193 nm excimer laser (FIG. 2a) or 254 nm UV (FIG. 2b)
Protocol: In order to perform the ATP test, RCE cells have been placed at the density of 5×10^5 cells/plate in 10 plates of Petri with 10-cm diameter and incubated overnight in 5% CO2 atmosphere, 37° C. Subsequently the plates have been preincubated for 2 hours with Q10 at 10 μM dissolved in the Lutrol F127™ solution or with Lutrol F127™ only. The culture medium has been then replaced by 8 ml of sterile PBS, additioned with Ca^++ and Mg^++ to avoid the detach of the cells from the support and the plates have been submitted to treatment with excimer laser (λ=193 nm) as shown by FIG. 2a or with 254 nm ultraviolet laser, as shown in FIG. 2b. Subsequently the PBS has been replaced by fresh culture medium additioned with the above reagents and the plates have been incubated for further 2 hours. At the moment of the assay the cells have been detached with trypsin according to standard procedures and counted by means of cell-counting chamber. […] The ATP quantification in the extracts has been performed by the “ATP Determination Kit” (Molecular Probes, USA) kit, based upon the firefly lucipherase according to the supplier instructions. To detect fluorescence, an analyzer for liquid scintillation (Camberra Packard, USA) preset for the bioluminescence analysis has been utilized.

[2] = cited from earlier work
[3] = system: RCE cells; assay: Counting of cumulative apoptotic deaths by videomicroscopy at time intervals; type: cell-based, rabbit; details: Q10 10 μM in Lutrol F127; 193 nm excimer laser and 254 nm UV; 24-72 hours after radiation; FIG. 6
Description: The videomicroscopy at time intervals is up to now one of the few techniques, if not the only one, enabling to have, apart from the cell death-type characterization, the exact quantification thereof too. In fact by continuously considering the cell population it is possible to calculate the number of cumulative deaths without losing any death event due to the disintegration of the cell body which typically occurs during apoptosis.
To perform the experiment RCE cells have been plated at the density of 5×10^5 cells/plate with 10-cm diameter and incubated overnight at 37° C., CO2 10%. Subsequently, the plates have been preincubated for 2 hours with Q10 10 μM dissolved in the Lutrol F127^MT solution or with Lutrol F127™ only. The culture medium has been then replaced by 8 ml of sterile PBS, additioned with Ca^++ and Mg^++ to avoid the cell detachment from the support, and the plates have undergone treatment with excimer laser and λ=254 UV radiation in a Stratalinker apparatus, model 1800 (Stratagene) with various doses. Subsequently the PBS has been replaced by fresh culture medium additioned with the above reagents. […]

[4] = system: RCE cells (Rabbit Corneal Epithelial Cells); assay: Malondialdehyde assay (lipid peroxidation / free radical production) after radiation; type: cell-based; details: 2 h preincubation
Description: The malondialdehyde is a product of the lipid peroxidation which occurs following exposure to free radicals of polyinsaturated fat acids. The malondialdehyde production is then routinely interpreted as a production index of the radicals themselves by means of treatment with electromagnetic radiations or oxidant substances. The Q10, as antioxidant, decreases the malondialdehyde production by indicating an action thereof which inhibits the free radicals' formation. To perform the malondialdehyde assay, RCE cells (Rabbit Corneal Epithelial Cells which are rabbit corneal keratocytes immortalized with SV40) have been plated at the density of 5×10^5 cell/plate in 10 plates of Petri with 10-cm diameter and incubated overnight in 5% CO2 atmosphere, 37° C. Then, the plates have been preincubated for 2 hours with Q10 10 μM, Vit.E, Vit. […] At the moment of the test the cells have been detached with trypsin according to standard procedures and counted by means of cell-counting chamber. […]
At 300 μl of buffy coat of each sample, 300 μl of thiobarbituric acid (TBA) by 1% have been added. The mixtures have been incubated at 95° C. for 30 minutes, centrifugated for 20 minutes at 12,000 RPM and the optic absorption of the buffy coat resulting by spettrophotometric analysis at λ=532 nm has been assessed. […]

[5] = system: RCE cells; assay: Counting of vital cells by trypan blue exclusion test after radiation; type: cell-based, rabbit; details: Q10 10 μM in Lutrol F127; excimer laser and 254 nm UV (15,000 μJ/cm^2); FIGS. 5a, 5b
Protocol: However, the fact that the Q10 has a general protection effect against death by radiation is an important data in preventing […] collateral effects. In order to perform the trypan blue test, RCE cells have been plated at a density of 5×10^5 cells/plates with 10-cm diameter incubated overnight at 37° C., […]. Subsequently, the plates have been preincubated for 2 hours with Q10 10 μM dissolved in the Lutrol F127^MT solution or with Lutrol F127™ only. The culture medium has been then replaced by 8 ml of sterile PBS, additioned with Ca^++ and Mg^++ to avoid the cell detachment from the support, and the plates have undergone treatment with excimer laser and λ=254 UV radiation in a Stratalinker apparatus, model 1800 (Stratagene). Subsequently the PBS has been replaced by fresh culture medium additioned with the above reagents. The plates have been incubated for the time shown in FIG. 6a and in FIG. 6b and subsequently detached by trypsin according to standard procedures and resuspended in PBS. To the cell suspension a trypan blue solution in PBS by 1% concentration has been added immediately before the counting performed by means of cell-counting chamber. The number of live cells is shown in the FIGS. 4, 5a and 5b in the non-treated sample percentage.

COC1=C(OC)C(=O)C(C/C=C(\C)CC/C=C(\C)CC/C=C(\C)CC/C=C(\C)CC/C=C(\C)CC/C=C(\C)CC/C=C(\C)CC/C=C(\C)CC/C=C(\C)CCC=C(C)C)=C(C)C1=O [Q10, ubiquinone Q10]
ATP level following radiation [1]: protective effect opposing the decrease in the ATP level | solubility in water [2]: non-hydrosoluble substance | cumulative apoptotic deaths [3]: protective effect on cells treated with 193 nm excimer laser and 254 nm UV radiation | malondialdehyde levels following treatment with UV at 254 nm ([4]; Q10 10 μM in Lutrol F127, alone or in combination with Vit.E, Vit.C, 254 nm UV 15,000 μJ/cm^2, FIG. 1a): protective effect | malondialdehyde production following treatment with 193 nm excimer laser ([4]; Q10 10 μM in Lutrol F127, various doses of 193 nm excimer laser, FIG. 1b): reductive effect against the malondialdehyde production | vitality of cells (number of live cells, trypan blue) [5]: protective effect on the vitality of cells

Source: patent publication US6787572B2, “Use of ubiquinone Q10 for the local treatment and prevention of post-surgical ophthalmologic pathologies” (priority 1999, dated 2004)
